The values that follow come from patent US9844549B2, “2-aminothiazole derivative or salt thereof” (ASTELLAS PHARMA INC., priority 2014, dated 2017).

The test system of this experiment is anesthetized rats. Briefly: Effect on pelvic nerve stimulation-induced elevation of intravesical pressure in anesthetized rats. The class given is in vivo. As to conditions: Rattus norvegicus; 3 mg/kg intravenous; maximum effect within one hour; AUC, pre-treatment = 100%; SD female rats; read-out: Increase rate of intravesical pressure (% of pre). The protocol: Test Example 3: Effect on Pelvic Nerve Stimulation-Induced Elevation of Intravesical Pressure in Anesthetized Rats
The effect of the Example compounds of the present invention in the pelvic nerve electrical stimulation-induced elevation of intravesical pressure using rats as an action of nerve stimulation-dependent bladder contraction in vivo was measured by the following method. That is, SD female rats (Japan SLC, Inc.) were used and its lower abdomen was dissected at the midline under pentobarbital anesthesia (50 mg/kg ip). After ligating and cutting the ureter on both sides, a cannula (PE-50) for measuring the intravesical pressure was inserted into the bladder from the external urethral opening and fixed by a clip. After injecting about 200 μL of saline through the cannula that had been inserted into the bladder, the other side was connected to a pressure transducer to measure the intravesical pressure. Under a stereoscopic microscope observation, the pelvic nerve in the vicinity of the bladder was peeled and an electrode for nerve stimulation (unique Medical) was placed. The abdominal cavity was filled with mineral oil (MP BIOMEDICALS). After placing in a post-operative stabilization period, the pelvic nerve was subjected to electrical stimulation (stimulation voltage: 10 V, stimulation frequency: 8 Hz, pulse width: 0.3 msec, and stimulation time: 10 seconds) to elicit the elevation of intravesical pressure, using an electrical stimulator (Nihon Kohden). By repeating the electrical stimulation at an interval of 2 minutes while adjusting the voltage, the voltage was adjusted to elicit about 50% to 70% elevation of intravesical pressure elicited at 10 V. Thereafter, by repeating the electrical stimulation at an interval of 10 minutes, the increase in the intravesical pressure by electrical stimulation was stabilized three times or more, and the test substance (an administration amount of 3 mg/kg) was then administered from the catheter detained in the vein at a volume of 1 mL/kg, thus measuring an effect of the elevation of the intravesical pressure of the test substance for 1 hour. The test substance was dissolved in water supplemented with 10% DMSO and 10% Cremophor.
The response was applied to a personal computer through a PowerLab (registered trademark) and analyzed by LabChart (registered trademark). The AUC of each elevation of the intravesical pressure was calculated, the intravesical pressure elevation rate (% of pre) after the treatment with the test substance was calculated by taking an average value of the values measured three times before the treatment with the test substance as 100%, and the maximum effect during a period within one hour after administration of the compound was considered as the effect of the test substance.

Structures can show the parent of a compound that is named as a salt.

Take `C[C@@H]1CCCN1Cc1sc(Nc2nccc(N3CCN(CCC(=O)O)CC3)c2F)nc1-c1ccc(Cl)c(C(F)(F)F)c1` [Example 2, sodium 3-(4-{2-[(4-[4-chloro-3-(trifluoromethyl)phenyl]-5-{[(2R)-2-methylpyrrolidin-1-yl]methyl}-1,3-thiazol-2-yl)amino]-3-fluoropyridin-4-yl}piperazin-1-yl)propanoate]: the response vs control in vivo at 3 mg/kg was 143%.

On to `C[C@@H]1CCCN1Cc1sc(Nc2nccc(N3CCN(CCC(=O)O)CC3)c2F)nc1-c1cc(F)cc(C(F)(F)F)c1` [Example 5, 3-(4-{3-fluoro-2-[(4-[3-fluoro-5-(trifluoromethyl)phenyl]-5-{[(2R)-2-methylpyrrolidin-1-yl]methyl}-1,3-thiazol-2-yl)amino]pyridin-4-yl}piperazin-1-yl)propanoic acid trihydrochloride], for which the response vs control in vivo at 3 mg/kg was determined as 146%.

As to `Cc1nc(Nc2nc(-c3cc(F)cc(C(F)(F)F)c3)c(CN3CCC[C@H]3C)s2)cc(N2CCN(CCC(=O)O)[C@@H](C)C2)n1` [Example 15], the response vs control in vivo at 3 mg/kg came out at 130%.

For the molecule `Cc1nc(Nc2nc(-c3cc(F)cc(C(F)(F)F)c3)c(CN3CCC[C@H]3C)s2)cc(N2CCN(CC(=O)O)CC2)n1` [Example 16], the response vs control in vivo at 3 mg/kg came out at 111%.

Take `C[C@@H]1CN(c2cc(Nc3nc(-c4cc(F)cc(C(F)(F)F)c4)c(CN4CCC[C@H]4C)s3)ncn2)CCN1CCC(=O)O` [Example 20]: the response vs control in vivo at 3 mg/kg was found to be 118%.

Turning to `Cc1nc(Nc2nc(-c3cc(F)cc(C(F)(F)F)c3)c(CN3CCC[C@H]3C)s2)cc(N2CCN(CCC(=O)O)[C@H](C)C2)n1` [Example 21], the response vs control in vivo at 3 mg/kg was 116%.

For `COC1CCN(c2sc(Nc3cc(N4CCN(CCC(=O)O)CC4)nc(C)n3)nc2-c2cc(F)cc(C(F)(F)F)c2)CC1` [Example 27], the response vs control in vivo at 3 mg/kg stood at 123%.

For `CN(Cc1sc(Nc2ncnc(N3CCN(CCC(=O)O)CC3)c2F)nc1-c1cc(F)cc(C(F)(F)F)c1)CC1CC1` [Example 29], the response vs control in vivo at 3 mg/kg turned out to be 145%.

`Cc1nc(Nc2nc(-c3cc(F)cc(C(F)(F)F)c3)c(CN3CCC[C@H]3C)s2)cc(N2CCC(OCC(=O)O)CC2)n1` [Example 30]: the response vs control in vivo at 3 mg/kg is 124%.

For `C[C@@H]1CCCN1Cc1sc(Nc2ncnc(N3CCN(CCC(=O)O)[C@@H](C)C3)c2F)nc1-c1cc(F)cc(C(F)(F)F)c1` [Example 31], the response vs control in vivo at 3 mg/kg turned out to be 138%.

Regarding `CO[C@H]1CCCN(c2sc(Nc3ncnc(N4CCN(CCC(=O)O)CC4)c3F)nc2-c2ccc(Cl)c(C(F)(F)F)c2)C1` [Example 32], the response vs control in vivo at 3 mg/kg was found to be 232%.

For the molecule `C[C@@H]1CCCN1Cc1sc(Nc2ncnc(N3CC[C@H](N(C)CCC(=O)O)C3)c2F)nc1-c1cc(F)cc(C(F)(F)F)c1` [Example 34], the response vs control in vivo at 3 mg/kg amounted to 159%.

Regarding `C[C@@H]1CCCN1Cc1sc(Nc2ncnc(N3CCN(CCC(=O)O)[C@@H](C)C3)c2F)nc1-c1ccc(Cl)c(C(F)(F)F)c1` [Example 35], the response vs control in vivo at 3 mg/kg was 154%.

On to `C[C@@H]1CC[C@@H](C)N1Cc1sc(Nc2ncnc(N3CCN(CCC(=O)O)CC3)c2F)nc1-c1ccc(Cl)c(C(F)(F)F)c1` [Example 36], for which the response vs control in vivo at 3 mg/kg came to 191%.

`CC[C@@H]1CCCN1Cc1sc(Nc2nc(C)nc(N3CCN(CCC(=O)O)CC3)c2F)nc1-c1cc(F)cc(C(F)(F)F)c1` [Example 38]: the response vs control in vivo at 3 mg/kg was determined as 142%.

As to `COC1(C(=O)O)CCN(c2ncnc(Nc3nc(-c4cc(F)cc(C(F)(F)F)c4)c(CN4CCC[C@H]4C)s3)c2F)CC1` [Example 39], the response vs control in vivo at 3 mg/kg was found to be 123%.

In the case of `C[C@@H]1CC[C@@H](C)N1Cc1sc(Nc2ncnc(N3CCN(CCC(=O)O)CC3)c2F)nc1-c1cc(Cl)cc(C(F)(F)F)c1` [Example 40], the response vs control in vivo at 3 mg/kg is 212%.

With `C[C@@H]1CCCCN1Cc1sc(Nc2ncnc(N3CCN(CCC(=O)O)CC3)c2F)nc1-c1cc(Cl)cc(C(F)(F)F)c1` [Example 43], the response vs control in vivo at 3 mg/kg was 177%.

Consider `C[C@@H]1CCCN1Cc1sc(Nc2ncnc(N3CCN(CCC(=O)O)C(CF)C3)c2F)nc1-c1cc(F)cc(C(F)(F)F)c1` (some centres unmarked) [Example 45], for which the response vs control in vivo at 3 mg/kg stood at 182%.

As for `C[C@@H]1CCCN1Cc1sc(Nc2ncnc(N3CCN(CCC(=O)O)CC3)c2F)nc1-c1cc(Cl)cc(OC(F)(F)F)c1` [Example 51], the response vs control in vivo at 3 mg/kg was found to be 129%.

Consider `C[C@@H]1CCCN1Cc1sc(Nc2ncnc(N3CC[C@H](N(C)CCC(=O)O)C3)c2F)nc1-c1ccc(Cl)c(C(F)(F)F)c1` [Example 53], for which the response vs control in vivo at 3 mg/kg was 145%.

For `COC1(C(=O)O)CCN(c2ncnc(Nc3nc(-c4cc(F)cc(C(F)(F)F)c4)c(CN4[C@H](C)CC[C@H]4C)s3)c2F)CC1` [Example 54], the response vs control in vivo at 3 mg/kg is 150%.

Take `COC[C@H]1CN(c2ncnc(Nc3nc(-c4ccc(Cl)c(C(F)(F)F)c4)c(CN4CCC[C@H]4C)s3)c2F)CCN1CCC(=O)O` [Example 55]: the response vs control in vivo at 3 mg/kg came out at 189%.

In the case of `C[C@@H]1CCCN1Cc1sc(Nc2ncnc(N3CCN(CCC(=O)O)[C@H](CF)C3)c2F)nc1-c1cc(F)cc(C(F)(F)F)c1` [Example 58], the response vs control in vivo at 3 mg/kg is 175%.

With `C[C@@H]1CCCN1Cc1sc(Nc2ncnc(N3CCN(CCC(=O)O)[C@H](CF)C3)c2F)nc1-c1ccc(Cl)c(C(F)(F)F)c1` [Example 59], the response vs control in vivo at 3 mg/kg is 225%.

Regarding `CC[C@@H]1CCCN1Cc1sc(Nc2ncnc(N3CCN(CCC(=O)O)CC3)c2F)nc1-c1cc(Cl)cc(C(F)(F)F)c1` [Example 63], the response vs control in vivo at 3 mg/kg came out at 198%.

As for `C[C@@H]1CC[C@@H](C)N1Cc1sc(Nc2ncnc(N3CC[C@H](N(C)CCC(=O)O)C3)c2F)nc1-c1cc(Cl)cc(C(F)(F)F)c1` [Example 65], the response vs control in vivo at 3 mg/kg was 174%.

With `C[C@@H]1CCCN1Cc1sc(Nc2ncnc(N3CCC(OCC(=O)O)CC3)c2F)nc1-c1cc(Cl)cc(C(F)(F)F)c1` [Example 67], the response vs control in vivo at 3 mg/kg worked out at 169%.

In the case of `C[C@@H]1CC[C@@H](C)N1Cc1sc(Nc2ncnc(N3CCC(OCC(=O)O)CC3)c2F)nc1-c1cc(Cl)cc(C(F)(F)F)c1` [Example 68], the response vs control in vivo at 3 mg/kg was found to be 172%.

Regarding `CC[C@@H]1CCCN1Cc1sc(Nc2ncnc(N3CC[C@H](N(C)CCC(=O)O)C3)c2F)nc1-c1cc(Cl)cc(C(F)(F)F)c1` [Example 69], the response vs control in vivo at 3 mg/kg amounted to 150%.

As for `CC[C@@H]1CCCN1Cc1sc(Nc2ncnc(N3CCN(CCC(=O)O)[C@H](COC)C3)c2F)nc1-c1cc(F)cc(C(F)(F)F)c1` [Example 70], the response vs control in vivo at 3 mg/kg turned out to be 151%.

In the case of `CC[C@@H]1CCCN1Cc1sc(Nc2ncnc(N3CCN(CCC(=O)O)[C@H](COC)C3)c2F)nc1-c1cc(Cl)cc(C(F)(F)F)c1` [Example 71], the response vs control in vivo at 3 mg/kg was 197%.

Consider `C[C@@H]1CCCN1Cc1sc(Nc2ncnc(N3CCN(CC(=O)O)CC3)c2F)nc1-c1cc(Cl)cc(C(F)(F)F)c1` [Example 77], for which the response vs control in vivo at 3 mg/kg is 140%.

`C[C@@H]1CCCN1Cc1sc(Nc2ncnc(N3CCN(CCC(=O)O)[C@@H](CO)C3)c2F)nc1-c1cc(F)cc(C(F)(F)F)c1` [Example 86]: the response vs control in vivo at 3 mg/kg was 164%.

As for `C[C@@H]1CCCN1Cc1sc(Nc2cc(N3CCN(CCC(=O)O)CC3)ncn2)nc1-c1cc(Cl)cc(C(F)(F)F)c1` [Example 92], the response vs control in vivo at 3 mg/kg was 105%.
